# System: Norwalk GI.1 replicon
# Test: Norwalk GI.1 replicon assay (in vitro anti-viral activity)
# Format: cell-based
# Details: Norovirus
# Description: The Norwalk GI.1 strain (Chang, K. O., et al. (2006) Virology 353:463-473), the GII-4 strain replicon, as well other Norovirus replicons can be used in assays to determine the in vitro antiviral activity of the compounds described herein, or other compounds or compound libraries. In some embodiments, the replicon systems are subgenomic and therefore allow evaluation of small molecule inhibitors of non-structural proteins. This can provide the same benefits to Norovirus drug discovery that Hepatitis C replicons contributed to the discovery of therapeutics useful for treatment of that virus (Stuyver, L. J., et al. (2006) Antimicrob. Agents Chemother. 47:244-254).
structure (smiles),measurement,value
CC1(O)C(O)[C@@H](CO)O[C@H]1n1ccc(N)nc1=O (some centres unmarked) [2′-C-methyl-cytosine],EC50,2.1 µM
same,EC90,8.9 µM
